The source of these data is patent US20130064901A1, “GENE EXPRESSION PROFILING FOR CLASSIFYING AND TREATING GASTRIC CANCER” (Agency for Science, Technology and Research, priority 2011, published 2013).

Each structure is given as a SMILES string. Entries after “also recorded” stand apart in the source; their conditions may differ. Where two headings read alike, the source gives them in different places.

The subject of experiment [1] is G-DIF gastric cancer cell lines. The experiment in a line: In vitro cell proliferation assay (MTS), G-DIF cell lines. It counts as cell-based, human. As to conditions: mean of 17 G-DIF cell lines, drug concentration at which 50% growth inhibition is achieved, read-out: Mean GI-50 concentration. The procedure:
(§1) Cell proliferation assays were performed using a tetrazolium compound-based colorimetric method. Adherent or semi-adherent cell lines with doubling times less than 48 hours were used in this analysis. The cell lines for which cell proliferation assays were performed are: YCC19, YCC18, TMK1, YCC2, CLS145, YCC9, YCC6, NUGC3, HGC-27, Fu97, Ist1, YCC7, YCC16, Hs746T, MKN45, KatoIII, AGS, SNU719, AZ521, YCC1, MKN1, YCC11, IM95, MKN7, YCC3, YCC10, SCH and N87. Cell proliferation assays were performed using a tetrazolium compound-based colorimetric method (MTS kit, Promega, Madison, Wis., USA) according to the manufacturer's instructions and measured using an EnVision 2104 multilabel plate reader (Perkin Elmer, Finland) at 490 nm. Inhibition of cell growth by drugs was also visually confirmed under microscopy. Drugs used include cisplatin (Sigma, 479306-1G), oxaliplatin (Sigma, O9512), 5-Fluorouracil (Sigma, F6627-1G).
(§2) Of the 37 cell lines, 28 cell lines (11 G-INT and 17 G-DIF) had growth characteristics suitable for in vitro drug sensitivity testing. 5-FU, oxaliplatin and cisplatin are drugs presently employed in the adjuvant and 1st line palliative treatment of GC. The 28 cell lines were treated with increasing concentrations of these drugs.

Experiment [2] relates to G-INT gastric cancer cell lines. The experiment in a line: In vitro cell proliferation assay (MTS), G-INT cell lines. The class given is cell-based, human. As to conditions: for In vitro sensitivity of G-INT versus G-DIF cell lines: 28 cell lines (11 G-INT and 17 G-DIF) treated with increasing concentrations; for GI50: mean of 11 G-INT cell lines, drug concentration at which 50% growth inhibition is achieved, read-out: Mean GI-50 concentration. The procedure: as §1, §2

The test system of a further experiment is GC subsets. As to conditions: INT-0116, ten-year update subgroup analysis; cited from earlier work.

On to `O=c1[nH]cc(F)c(=O)[nH]1` [5-FU, 5-Fluorouracil], for which the GI50 is 23.2 µM in experiment [1] (Homo sapiens) and 5.2 µM in experiment [2] (Homo sapiens). Also, the “In vitro sensitivity of G-INT versus G-DIF cell lines” value in experiment [2] was “G-INT cell lines were significantly more sensitive”. In the experiment on GC subsets, the “Benefit from 5-FU therapy by GC subset” value was “all GC subsets benefited from 5-FU therapy except for cases with diffuse histology”.
For the molecule `N.N.[Cl][Pt][Cl]` [cisplatin], the GI50 in experiment [1] stood at 13.3 µM; in experiment [2], 38.6 µM. Further, the “In vitro sensitivity of G-INT versus G-DIF cell lines” value in experiment [2] is listed as “G-DIF cell lines were more sensitive; also recorded: more resistant”.
The matching figures for `O=C1[O][Pt]2([NH][C@@H]3CCCC[C@H]3[NH]2)[O]C1=O` [oxaliplatin]: 5.49 µM, 1.33 µM and “G-INT cell lines were significantly more sensitive”.
